Key:
[1] = biological target: T1, phosphorylated VEGF-R2Δ50 (FLVK-P) (Homo sapiens, UniProt P35968, DEL940-989/E990V); assay: VEGF-R2 coupled spectrophotometric assay, phosphorylated construct (FLVK-P); format: biochemical
T1 construct: VEGF-R2Δ50 contains residues 806-939 and 990-1171; made in house; host or cells: baculovirus/insect cells
How it was run: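 Continuous PK/LDH-coupled spectrophotometric read (NADH loss at 340 nm) with 5–40 nM enzyme in 200 mM Hepes pH 7.5. Phosphorylated construct run at 1 mM ATP, 25 mM MgCl2, 5.1 mM poly(E4Y1); unphosphorylated at 3 mM ATP, 60 mM MgCl2 plus 2 mM MnCl2, 20 mM poly(E4Y1). Ki values derived from varied inhibitor concentrations.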

FL-CHK-1 = biological target: T2, FL-CHK-1 (Homo sapiens, UniProt O14757); assay: CHK-1 coupled spectrophotometric assay (Syntide-2); format: biochemical; conditions: @ 1 μM; read-out: CHK-1 percent inhibition
T2 construct: C-terminally His-tagged full-length human CHK-1 (FL-CHK-1); made in house; host or cells: baculovirus/insect cells
T2 sequence (O14757 1-476): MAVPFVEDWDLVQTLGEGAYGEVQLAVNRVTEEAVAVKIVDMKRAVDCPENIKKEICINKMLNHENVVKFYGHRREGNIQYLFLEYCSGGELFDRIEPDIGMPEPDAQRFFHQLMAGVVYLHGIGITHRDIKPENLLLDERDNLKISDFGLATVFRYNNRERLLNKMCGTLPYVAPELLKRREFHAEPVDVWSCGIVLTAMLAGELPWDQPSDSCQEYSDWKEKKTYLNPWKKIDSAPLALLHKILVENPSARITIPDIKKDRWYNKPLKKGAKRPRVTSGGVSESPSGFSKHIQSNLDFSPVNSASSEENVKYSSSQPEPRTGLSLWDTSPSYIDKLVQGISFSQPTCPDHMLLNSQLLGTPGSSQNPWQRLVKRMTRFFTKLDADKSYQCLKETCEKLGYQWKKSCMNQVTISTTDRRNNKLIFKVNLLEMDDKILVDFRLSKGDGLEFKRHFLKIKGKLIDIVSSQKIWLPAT
Excerpt: C-terminally His-tagged full-length human CHK-1 (FL-CHK-1) was expressed using the baculovirus/insect cell system. It contains 6 histidine residues (6×His-tag) at the C-terminus of the 476 amino acid human CHK-1. The protein was purified by conventional chromatographic techniques.
The production of ADP from ATP that accompanies phosphoryl transfer to the synthetic substrate peptide Syntide-2 ([…]) was coupled to oxidation of NADH using phosphoenolpyruvate (PEP) through the actions of pyruvate kinase (PK) and lactic dehydrogenase (LDH). The oxidation of NADH was monitored by following the decrease of absorbance at 340 nm (ε340=6.22 cm−1 mM^−1) using a HP8452 spectrophotometer. Typical reaction solutions contained: […]; 0.15 mM NADH; 28 units of LDH/ml; 16 units of PK/ml; 3 mM DTT; 0.125 mM Syntide-2; 0.15 mM ATP; 25 mM MgCl2 in 50 mM TRIS, pH 7.5; and 400 mM NaCl. Assays were initiated with 10 nM of FL-CHK-1. Ki values were determined by measuring initial enzyme activity in the presence of varying concentrations of test compounds. The data were analyzed using Enzyme Kinetic and Kaleidagraph software.

T1 sequence (P35968 with tags, fused parts or gaps DEL940-989/E990V limits assumed): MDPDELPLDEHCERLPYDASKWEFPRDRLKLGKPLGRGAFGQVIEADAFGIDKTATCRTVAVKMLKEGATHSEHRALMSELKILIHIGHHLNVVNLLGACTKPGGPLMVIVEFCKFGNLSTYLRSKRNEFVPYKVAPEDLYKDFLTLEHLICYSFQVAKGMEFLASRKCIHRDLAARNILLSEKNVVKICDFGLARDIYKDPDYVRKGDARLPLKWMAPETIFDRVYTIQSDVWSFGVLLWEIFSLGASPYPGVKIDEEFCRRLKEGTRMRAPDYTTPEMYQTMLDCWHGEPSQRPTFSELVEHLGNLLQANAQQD

Row | SMILES | Ki [1] [nM] | inhibition at 1 µM (FL-CHK-1) [%]
1 | Cc1cc(NC(=O)c2ccc(F)c(OCc3cncc4ccccc34)c2)ccc1C(C)C [Example K-10, N-(4-Isopropyl-3-methyl-phenyl)-4-fluoro-3-(Isoquinolin-4-yl)methoxy-benzamide] | 2.19 | 8
2 | O=C(Nc1ccc(N2CCCC2)c(C(F)(F)F)c1)c1cccc(CCc2cc(Nc3cccnc3)n[nH]2)c1 [Example G-11] | 0.17 | 7
3 | Cc1ccc2cc(NC(=O)c3cccc(SCc4cc(Nc5ccccc5)n[nH]4)c3)ccc2n1 [Example E-1, N-(2-methyl-quinolin-6-yl)-3-[{5-(phenylamino)-2-H-pyrazol-3-yl}methylsulfanyl]benzamide] | 2.21 | –
4 | CC(=O)Nc1ccc(COc2cccc(C(=O)Nc3ccc4nc(C)ccc4c3)c2)cn1 [Example N-1, 3-(6-Acetylaminopyridin-3-yl)methoxy-N-(2-methyl-quinolin-6-yl)-benzamide] | 3.74 | 10
